Laboratory results from PubChem BioAssay AID1963445 (Molecular Pharmacology Branch, DTP, NCI, 2024).
Several values for one entry are separate records, joined by “and”; a condition that tells them apart may be missing. Equal values may be shown once.

Tested on: MCF7 complex spheroid growth, % test/control
Assay: Anticancer human tumor MCF7 cell line growth inhibition [Asc];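 also: spheroids exposed to compounds for 7 days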;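 as to viability, T/C: 100% = DMSO vehicle control wells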
Conditions: for viability, T/C: stronger effect = lower value
Method in brief: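 Spheroid model: tumor line + HUVEC + hMSC. Single agents and combinations; top conc. at/near clinical Cmax (10 microM if undetermined), half-log dilutions. DMSO stocks at 800-fold test concentration.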

[1] = curve of first compound, second compound 0.00316 µM
[2] = curve of first compound, second compound 0.01 µM
[3] = curve of first compound, second compound 0.0316 µM
[4] = curve of first compound, second compound 0.1 µM
[5] = curve of first compound, second compound 0.316 µM
[6] = curve of first compound, second compound 1 µM
[7] = second compound 0.00316 µM, first compound 0.0316 µM
[8] = second compound 0.00316 µM, first compound 0.1 µM
[9] = second compound 0.00316 µM, first compound 0.316 µM
[10] = second compound 0.00316 µM, first compound 1 µM
[11] = second compound 0.00316 µM, first compound 3.16 µM
[12] = second compound 0.00316 µM, first compound 10 µM
[13] = second compound 0.01 µM, first compound 0.0316 µM
[14] = second compound 0.01 µM, first compound 0.1 µM
[15] = second compound 0.01 µM, first compound 0.316 µM
[16] = second compound 0.01 µM, first compound 1 µM
[17] = second compound 0.01 µM, first compound 3.16 µM
[18] = second compound 0.01 µM, first compound 10 µM
[19] = second compound 0.0316 µM, first compound 0.0316 µM
[20] = second compound 0.0316 µM, first compound 0.1 µM
[21] = second compound 0.0316 µM, first compound 0.316 µM
[22] = second compound 0.0316 µM, first compound 1 µM
[23] = second compound 0.0316 µM, first compound 3.16 µM
[24] = second compound 0.0316 µM, first compound 10 µM
[25] = second compound 0.1 µM, first compound 0.0316 µM
[26] = second compound 0.1 µM, first compound 0.1 µM
[27] = second compound 0.1 µM, first compound 0.316 µM
[28] = second compound 0.1 µM, first compound 1 µM
[29] = second compound 0.1 µM, first compound 3.16 µM
[30] = second compound 0.1 µM, first compound 10 µM
[31] = second compound 0.316 µM, first compound 0.0316 µM
[32] = second compound 0.316 µM, first compound 0.1 µM
[33] = second compound 0.316 µM, first compound 0.316 µM
[34] = second compound 0.316 µM, first compound 1 µM
[35] = second compound 0.316 µM, first compound 3.16 µM
[36] = second compound 0.316 µM, first compound 10 µM
[37] = second compound 1 µM, first compound 0.0316 µM
[38] = second compound 1 µM, first compound 0.1 µM
[39] = second compound 1 µM, first compound 0.316 µM
[40] = second compound 1 µM, first compound 1 µM
[41] = second compound 1 µM, first compound 3.16 µM
[42] = second compound 1 µM, first compound 10 µM

C=C(F)C(=O)N1CCN(c2nc(OCC3CCCN3C)nc3c2CCN(c2cccc4cccc(Cl)c24)C3)CC1CC#N (stereo not given) + CNC(C)C(=O)NC1CN(S(=O)(=O)c2cccc(S(=O)(=O)N3CCC4CCC(C(=O)NC(c5ccccc5)c5ccccc5)N4C(=O)C(NC(=O)C(C)NC)C3)c2)CCC2CCC(C(=O)NC(c3ccccc3)c3ccccc3)N2C1=O
IC50 [1]: < 0.0316 µM | IC50 [2]: < 0.0316 µM | IC50 [3]: < 0.0316 µM | IC50 [4]: < 0.0316 µM | IC50 [5]: < 0.0316 µM | IC50 [6]: < 0.0316 µM | viability, T/C [7]: 47.7% | viability, T/C [8]: 38.8% | viability, T/C [9]: 29.2% | viability, T/C [10]: 15.9% | viability, T/C [11]: 1.96% | viability, T/C [12]: 0.09% | viability, T/C [13]: 14% | viability, T/C [14]: 12% | viability, T/C [15]: 15% | viability, T/C [16]: 9.45% | viability, T/C [17]: 2.95% | viability, T/C [18]: 0.08% | viability, T/C [19]: 13.4% | viability, T/C [20]: 9.36% | viability, T/C [21]: 10.1% | viability, T/C [22]: 7.62% | viability, T/C [23]: 2.55% | viability, T/C [24]: 0.08% | viability, T/C [25]: 12% | viability, T/C [26]: 10.8% | viability, T/C [27]: 11% | viability, T/C [28]: 7.97% | viability, T/C [29]: 1.68% | viability, T/C [30]: 0.08% | viability, T/C [31]: 12% | viability, T/C [32]: 12% | viability, T/C [33]: 11.9% | viability, T/C [34]: 7.65% | viability, T/C [35]: 2.03% | viability, T/C [36]: 0.1% | viability, T/C [37]: 12.6% | viability, T/C [38]: 10.9% | viability, T/C [39]: 10.3% | viability, T/C [40]: 7.96% | viability, T/C [41]: 1.41% | viability, T/C [42]: 0.18%

CNC(C)C(=O)NC1CN(S(=O)(=O)c2cccc(S(=O)(=O)N3CCC4CCC(C(=O)NC(c5ccccc5)c5ccccc5)N4C(=O)C(NC(=O)C(C)NC)C3)c2)CCC2CCC(C(=O)NC(c3ccccc3)c3ccccc3)N2C1=O (stereo not given)
viability, T/C (compound 0.01 µM): 14.2% [middle of 9 runs] | viability, T/C (compound 0.0316 µM): 11.7% [middle of 9 runs] | viability, T/C (compound 0.1 µM): 14.7% [middle of 8 runs] | viability, T/C (compound 0.316 µM): 13.2% [middle of 9 runs] | viability, T/C (compound 1 µM): 13.2% [middle of 9 runs] | IC50 (compound alone, run of 11/15/2022): < 0.00316 µM | IC50 (curve of compound): 0.00524 µM and 0.00667 µM

O=C(c1cc(Cc2n[nH]c(=O)c3ccccc23)ccc1F)N1CCN(C(=O)C2CC2)CC1
viability, T/C (compound 0.0316 µM): 104% and 99% and 94.7% | viability, T/C (compound 0.1 µM): 90.7% and 89.4% and 111% | viability, T/C (compound 0.316 µM): 95.8% and 90.3% and 114% | viability, T/C (compound 1 µM): 104% and 121% and 97.4% | viability, T/C (compound 3.16 µM): 81.3% and 87.6% and 46.4% | viability, T/C (compound 10 µM): 71.4% and 72.6% and 15.8% | IC50 (curve of compound): > 10 µM and 2.91 µM

O=C(c1cc(Cc2n[nH]c(=O)c3ccccc23)ccc1F)N1CCN(C(=O)C2CC2)CC1 + Cc1c(S(C)(=O)=O)c(-c2cc(F)cc(N3CCN(c4ccc(NS(=O)(=O)c5ccc(NC(CCN6CCC(C(=O)OCCCP(=O)(O)O)CC6)CSc6ccccc6)c(S(=O)(=O)C(F)(F)F)c5)cc4)CC3)c2)c(-c2ccc(Cl)cc2)n1C(C)C
IC50 [3]: > 10 µM | IC50 [4]: > 10 µM | IC50 [5]: > 10 µM | IC50 [6]: 8.02 µM | IC50 (curve of first compound, second compound 3.16 µM): 7.13 µM | IC50 (curve of first compound, second compound 10 µM): 8.47 µM | viability, T/C [19]: 95.8% | viability, T/C [20]: 99.9% | viability, T/C [21]: 118% | viability, T/C [22]: 95.9% | viability, T/C [23]: 80.5% | viability, T/C [24]: 54.3% | viability, T/C [25]: 117% | viability, T/C [26]: 99.8% | viability, T/C [27]: 87% | viability, T/C [28]: 99.4% | viability, T/C [29]: 84.5% | viability, T/C [30]: 57.6% | viability, T/C [31]: 117% | viability, T/C [32]: 109% | viability, T/C [33]: 101% | viability, T/C [34]: 93.7% | viability, T/C [35]: 72.8% | viability, T/C [36]: 52.5% | viability, T/C [37]: 119% | viability, T/C [38]: 107% | viability, T/C [39]: 91.9% | viability, T/C [40]: 105% | viability, T/C [41]: 88.9% | viability, T/C [42]: 40.4% | viability, T/C (second compound 3.16 µM, first compound 0.0316 µM): 108% | viability, T/C (second compound 3.16 µM, first compound 0.1 µM): 72.5% | viability, T/C (second compound 3.16 µM, first compound 0.316 µM): 79.1% | viability, T/C (second compound 3.16 µM, first compound 1 µM): 93.6% | viability, T/C (second compound 3.16 µM, first compound 3.16 µM): 68.2% | viability, T/C (second compound 3.16 µM, first compound 10 µM): 42.4% | viability, T/C (second compound 10 µM, first compound 0.0316 µM): 82.6% | viability, T/C (second compound 10 µM, first compound 0.1 µM): 84.4% | viability, T/C (second compound 10 µM, first compound 0.316 µM): 74.6% | viability, T/C (second compound 10 µM, first compound 1 µM): 86.9% | viability, T/C (second compound 10 µM, first compound 3.16 µM): 76.3% | viability, T/C (second compound 10 µM, first compound 10 µM): 45.4%

C=CC(=O)N1CCN(c2nc(=O)n(-c3c(C)ccnc3C(C)C)c3nc(-c4c(O)cccc4F)c(F)cc23)C(C)C1 (stereo not given) + CNC(C)C(=O)NC1CN(S(=O)(=O)c2cccc(S(=O)(=O)N3CCC4CCC(C(=O)NC(c5ccccc5)c5ccccc5)N4C(=O)C(NC(=O)C(C)NC)C3)c2)CCC2CCC(C(=O)NC(c3ccccc3)c3ccccc3)N2C1=O
IC50 [1]: < 0.0316 µM | IC50 [2]: < 0.0316 µM | IC50 [3]: < 0.0316 µM | IC50 [4]: < 0.0316 µM | IC50 [5]: < 0.0316 µM | IC50 [6]: < 0.0316 µM | viability, T/C [7]: 68.5% | viability, T/C [8]: 29% | viability, T/C [9]: 30.4% | viability, T/C [10]: 54.8% | viability, T/C [11]: 60.5% | viability, T/C [12]: 57.9% | viability, T/C [13]: 20.1% | viability, T/C [14]: 15% | viability, T/C [15]: 13.6% | viability, T/C [16]: 16.9% | viability, T/C [17]: 29.6% | viability, T/C [18]: 46% | viability, T/C [19]: 12.7% | viability, T/C [20]: 14.4% | viability, T/C [21]: 12.5% | viability, T/C [22]: 16.3% | viability, T/C [23]: 30.7% | viability, T/C [24]: 36.6% | viability, T/C [25]: 14.1% | viability, T/C [26]: 12% | viability, T/C [27]: 16.8% | viability, T/C [28]: 16.2% | viability, T/C [29]: 20.2% | viability, T/C [30]: 33% | viability, T/C [31]: 14.5% | viability, T/C [32]: 13.5% | viability, T/C [33]: 15.2% | viability, T/C [34]: 12.1% | viability, T/C [35]: 18.6% | viability, T/C [36]: 33.7% | viability, T/C [37]: 13% | viability, T/C [38]: 12.8% | viability, T/C [39]: 11.7% | viability, T/C [40]: 14.8% | viability, T/C [41]: 16.5% | viability, T/C [42]: 28.9%
